Results taken from PubChem BioAssay (NCI).
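Grown in 96-well plates, cells were treated for 48 hours with each compound at five concentrations. Insufficient inhibition: endpoint recorded as highest concentration tested. GI50 marks 50% less growth. TGI: total growth inhibition.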

How the values were obtained:
Test in all cases: NCI-60 cell line screen, 48 h
[1] = test system: CCRF-CEM leukemia
[2] = test system: COLO 205 colon
[3] = test system: HCT-15 colon
[4] = test system: K-562 leukemia
[5] = test system: KM12 colon
[6] = test system: SF-295 CNS
[7] = test system: SN12C renal
[8] = test system: SR leukemia
[9] = test system: SW-620 colon
[10] = test system: ACHN renal

Row | Structure (SMILES) | TGI [1] [µM] | TGI [2] [µM] | TGI [3] [µM] | TGI [4] [µM] | TGI [5] [µM] | TGI [6] [µM] | TGI [7] [µM] | TGI [8] [µM] | TGI [9] [µM] | TGI [10] [µM] | GI50 [10] [µM] | GI50 [1] [µM] | GI50 [2] [µM] | GI50 [3] [µM] | GI50 [4] [µM] | GI50 [5] [µM] | GI50 [6] [µM] | GI50 [7] [µM] | GI50 [8] [µM] | GI50 [9] [µM]
1 | CCOC(=O)C1(C(=O)OCC)Nc2cccnc2N(C)N1 | 44.6 | 24.2 | 36.2 | 49.9 | > 100 | > 100 | 36 | > 100 | 69 |  |  |  |  |  |  |  |  |  |  | 
2 | CNC(=O)OC(C)CN1c2ccccc2Sc2ccc(Cl)cc21 (stereo not given) | > 10 | > 10 | > 10 | > 10 |  | > 10 | > 10 | > 10 | > 10 | > 10 |  |  |  |  |  |  |  |  |  | 
3 | C[C@]12CC[C@@H]3c4ccc(OP(=O)(O)O)cc4CC[C@H]3[C@@H]1CCC2=O | > 100 | > 100 | > 100 | > 100 | > 100 | > 100 | > 100 |  | > 100 | > 100 |  |  |  |  |  |  |  |  |  | 
4 | O=C(CCCCCCC(=O)Nc1ccc(N(CCCl)CCCl)cc1)NO | > 100 | 19.9 | > 100 | 12.3 | 21.7 | 10.2 | 18.6 | 3.09 | 22 | 4.86 | 1.09 | 0.405 | 4.4 | 18.9 | 1.75 | 6.58 | 1.91 | 0.8 | 0.23 | 1.71
5 | COc1cc(C2C(C(=O)O)=C(CO)Oc3cc4c(cc32)OCO4)cc(OC)c1O (stereo not given) | > 100 | > 100 | > 100 | > 100 |  | > 100 | > 100 |  | > 100 | > 100 |  |  |  |  |  |  |  |  |  | 
6 | CCCc1[nH]c(SCCCCCCCCSc2nc(-c3ccc(F)cc3)c(CCC)[nH]2)nc1-c1ccc(F)cc1 | > 100 | > 100 | > 100 | > 100 | > 100 |  | > 100 | > 100 | > 100 | > 100 |  |  |  |  |  |  |  |  |  | 
7 | ONc1ncnc2nc[nH]c12 | > 100 | > 100 | > 100 | > 100 | > 100 | > 100 |  | > 100 | > 100 | > 100 |  |  |  |  |  |  |  |  |  | 
8 | N=c1c2c(C(N)=O)cn(C3OC(CO)C(O)C3O)c2ncn1O (stereo not given) | 1.46 | 1.23 | 0.388 |  | 0.753 | 1.42 | 0.444 | 0.234 | 0.497 | 0.311 |  |  |  |  |  |  |  |  |  | 
9 | Cc1cccc2nc3c(C(=O)NCCN(C)C)cccc3cc12 | 5.41 | 2.62 | 6.68 | 8.22 | 9.47 | 4.65 | 5.98 |  | 4.49 |  |  |  |  |  |  |  |  |  |  | 
10 | O=S(=O)(O)c1ccc2cccc(N=Nc3c(O)ccc4ccccc34)c2c1 | > 100 | > 100 | > 100 | > 100 | > 100 | > 100 | > 100 | > 100 | > 100 | > 100 |  |  |  |  |  |  |  |  |  | 
11 | CCOC(=O)c1nc2ccc(Cl)cc2c2c1Cc1ccccc1-2 |  | > 100 | > 100 | > 100 | > 100 | > 100 | > 100 | > 100 | > 100 | > 100 |  |  |  |  |  |  |  |  |  | 
12 | CN(C)CC(=O)Nc1ccc(Cn2nnc3c2C(=O)c2nnn(Cc4ccc(NC(=O)CN(C)C)cc4)c2C3=O)cc1 | 0.747 | 0.253 |  | > 100 |  |  |  |  |  | 1.23 | 0.335 | 0.204 | 0.087 |  | 0.293 |  |  |  |  | 
13 | CC1SC(c2ccccc2)N(CCc2cccs2)C1=O (stereo not given) | 35.2 | 10.8 | 18.8 | > 100 | 13.3 | 15.7 | 20.1 | 16.4 | 18.3 | 17.9 | 4.69 | 3.26 | 3.2 | 3.86 | 3.94 | 3.44 | 3.35 | 5.43 | 3.06 | 4.6
14 | CCOC(=O)N(Cc1cccs1)c1cc(OC)c(OC)c(OC)c1 | 69.3 | 32.9 | > 100 | 65.7 | > 100 | > 100 | > 100 | 65.5 | > 100 | > 100 |  |  |  |  |  |  |  |  |  | 
15 | COc1ccc(/C(=C2/O[C@@H]([C@H]3COC(C)(C)O3)[C@H]3OC(C)(C)O[C@@H]23)c2cc(OC)c(OC)c(OC)c2)cc1O | > 100 | 63.7 | 39.7 | > 100 | 17.8 | 43.9 | > 100 | > 100 | > 100 | > 100 | 15.4 | 5.45 | 27.3 | 4.06 | 6.28 | 4.1 | 18.7 | 8.9 | 6.1 | 7.28
16 | CCS(=O)(=O)Nc1ccc(Nc2c3ccccc3nc3ccccc23)c(OC)c1 |  | 7.28 | 5.11 | 14.6 | 6.72 | 3.34 | 3.86 |  | 7.13 |  |  |  |  |  |  |  |  |  |  | 
17 | Cc1nc(N)nc(N)c1-c1ccc(Cl)c(Cl)c1 | > 100 | > 67.5 | > 100 | > 100 | > 100 | > 100 | > 100 | > 100 | > 100 | > 100 |  |  |  |  |  |  |  |  |  | 
18 | CCN(CC)CC(C)Nc1ccc([N+](=O)[O-])c2sc3ccccc3c(=O)c12 (stereo not given) | 10.5 | 3.35 | 23.8 | 3.74 | 13.5 | 9.95 | 23.5 |  | 4.13 | 4.3 | 0.895 | 2.44 | 0.941 | 1.6 | 1.46 | 2.14 | 1.4 | 1.93 |  | 1.25
19 | CCSCCC(N)C(=O)O (stereo not given) |  | > 100 | > 100 | > 100 | > 100 | > 100 | > 100 | > 100 | > 100 | > 100 |  |  |  |  |  |  |  |  |  | 
20 | CN1CC[C@@]2(c3cccc(O)c3)CC(=O)/C(=C/c3ccccc3)[C@H]1C2 | > 27.7 | 30.3 | 41.2 | 6.52 | > 30.4 | 23.8 | 19.4 | 7.5 | 10.1 | 22.6 |  |  |  |  |  |  |  |  |  | 
21 | Cn1c(=S)[nH]c2sc3c(c2c1=O)CCSC3 |  | > 100 | > 100 | > 100 | > 100 | 97.3 | > 100 |  | > 100 | > 100 |  |  |  |  |  |  |  |  |  | 
22 | COc1ccc2nc(-c3ccc(-c4noc(-c5cc(OC)c(OC)c(OC)c5)n4)cc3)[nH]c2c1 | > 100 |  | 13.3 | > 100 | 81.8 | 38.3 | 31.3 |  | 56.5 | > 100 | 28.2 | 2.2 |  | 1.49 | 1.2 | 7.52 | 15 | 13.2 |  | 5.89
